Data taken from article PMC7925099, “Identification of an Antiretroviral Small Molecule That Appears To Be a Host-Targeting Inhibitor of HIV-1 Assembly” (Journal of Virology, 2021).
Where two headings read alike, the source gives them in different places.

Legend:
HIV-1 NL4-3 RLuc = assay: MT-2 spreading infection assay (inhibition of HIV-1 replication); details: for SI (CC50/EC50): from average values
Experimental: Inhibition of HIV-1 viral replication was assayed in a spreading infection using MT-2 cells and NL4-3 RLuc reporter virus. For dose-response curves, compounds were initially diluted with DMSO to 100-fold the starting concentration in a 96-well plate and subjected to a series of 3-fold dilutions in DMSO for a total of eight or nine dilutions. If a single compound concentration was tested, the compound was diluted to 100-fold the desired concentration in DMSO. Compounds were then diluted 50-fold with infection media prepared by diluting NL4-3 RLuc virus stock to 400 IU/100 μl with complete RPMI. Then, 100 μl of 50-fold-diluted compound was transferred to 20,000 MT-2 cells that were preseeded in 96-well plates in 100 μl of complete RPMI for a final volume of 200 μl, followed by incubation at 37°C for 96 h. The final MOI in infected plates was 0.02, and the final DMSO concentration in all wells was 1%. All assays were run with three replicates. For each replicate, one well received DMSO only, and one well received medium only for normalization and background correction. […] Plates were read on a luminescence plate reader (Synergy H1; BioTek Instruments, Inc.).
(§3) EC50 and CC50 values were determined in Excel using four-parameter logistic regression analysis of dose-response data generated from the viral inhibition or cytotoxicity assays, respectively. […] Average EC50 and CC50 values were calculated using the geometric mean and average values were reported with the geometric standard deviation (GSD).

in vitro = details: human
Experimental: (§4) For each viral inhibition assay, a cytotoxicity assay was performed in parallel on uninfected cells by adding 1/10 volume of alamarBlue (Thermo Fisher, Waltham, MA; DAL1199) to the plates, followed by thorough mixing. AlamarBlue-treated plates were incubated for 2 to 3 h at 37°C (the timing was optimized for the linear signal), mixed well, and read using a fluorescence plate reader with 560 nm and 590 nm as the excitation and emission settings, respectively (Synergy H1; BioTek Instruments, Inc.).
as §3

ABCE1 = molecular target: T1, ABCE1 (Homo sapiens, UniProt P61221); assay: Biotin-ABCE1 proximity ligation assay; type: cell-based; details: for biotin-ABCE1 PLA spots/cell: 16 h
T1 construct: endogenous in cells; host or cells: 293T/17 and 293T-HIV cells
Experimental: (§1) For each treatment, one-half of a Grace Biolabs Culture Well silicone chamber (Millipore-Sigma; GBL103380) was attached to a cover glass (Carl Zeiss, Oberkochen, Germany; catalog no. 474030-9000-000) to create four chambers on the cover glass. Each chambered cover glass was placed into a well of a 6-well plate, and the chambers were coated with poly-L-lysine and allowed to dry overnight. The next day, ∼4 × 10^3 293T/17 or 293T-HIV cells were seeded into each chamber, followed by incubation at 37°C for 5 to 6 h. After the cells adhered, they were treated with compound or DMSO. At 16 h posttreatment, the cells were fixed for 15 min in 4% paraformaldehyde in PBS (pH 7.4), permeabilized in 0.5% (wt/vol) saponin in PBS (pH 7.4) for 10 min, and blocked in Duolink blocking solution (Millipore-Sigma) at 37°C for 30 min. The cells were incubated in primary antibodies using the following concentrations: for the Gag-biotin PLA, mouse αGag p24 was used at 0.2 μg/ml, and rabbit αbiotin was used at 4 μg/ml; for the biotin-ABCE1 PLA, rabbit αABCE1 was used at 0.3 μg/ml, and mouse αbiotin was used at 0.7 μg/ml; for the biotin-DDX6 PLA, rabbit αDDX6 was used at 0.5 μg/ml and mouse αbiotin was used at 0.3 μg/ml; for the ABCE1-DDX6 PLA, rabbit αABCE1 was used at 0.3 μg/ml, and mouse αDDX6 was used at 0.3 μg/ml; for the biotin-G3BP1 PLA, rabbit αG3BP1 was used at 0.025 μg/ml, and mouse αbiotin was used at 0.2 μg/ml; for the TIAR-G3BP1 PLA, rabbit αG3BP1 was used at 0.025 μg/ml, and mouse αTIAR was used at 0.025 μg/ml; for the biotin-XRN1 PLA, rabbit α XRN1 was used at 0.5 μg/ml, and mouse αbiotin was used at 0.2 μg/ml; and for the DDX6-XRN1 PLA, rabbit αXRN1 was used at 0.5 μg/ml, and mouse αDDX6 was used at 0.5 μg/ml. For the NI control PLA experiments, NI control antibodies from the relevant species were used at the same concentration as the primary antibody they replaced. Primary incubation was followed by incubation with Duolink reagents (Millipore-Sigma): oligonucleotide-linked secondary antibody, ligation mix, and red amplification/detection mix, with washes in between, in accordance with the Duolink protocol. For concurrent IF analysis following the final 1× PLA buffer B washes, cells were incubated for 30 min at room temperature with 1:1,000 Alexa Fluor 488-anti-mouse secondary antibody. Cover glasses were mounted using Duolink in situ mounting medium with DAPI (4′,6′-diamidino-2-phenylindole; Millipore-Sigma), sealed to the glass slides with clear nail polish, allowed to dry for 24 h at room temperature, and stored at −20°C. Imaging was performed with a Zeiss Axio Observer.Z1/7 deconvolution microscope using Zeiss Plan-Apochromat 63×/aperture 1.4 objective with oil immersion, with Zen 2.6 (blue edition) software. For quantification, 5 to 10 fields, each containing at least three IF-positive cells, were chosen at random and imaged using identical exposure times for each channel (100 to 150 ms for the PLA channel in red; 0.5 to 1 s for the IF channel in green, depending on the IF primary antibody; and 20 ms for the DAPI channel in blue). Images were captured as a Z-stack of 80 to 90 0.24-μm slices that included the entire cell body and 5 μm above and below the cell (∼20 μm total). To determine the number of PLA spots per cell, image stacks were processed as follows in Fiji ([96]). First, an in-focus slice from the IF channel was selected using the Find Focused Slices plugin within ImageJ (Q. Tseng, 2020 [https://sites.google.com/site/qingzongtseng/find-focus]), and thresholding was used to generate regions of interest (ROI) that contained only cells. The ROIs identified in the IF channel were applied to a maximum intensity z projection of the PLA channel, and PLA spots within the ROI were counted using the find maxima function in Fiji, with noise threshold optimized to identify only PLA spots. Nuclei from each field were counted manually to determine the number of cells. […]

TIAR and G3BP1 = assay: TIAR-G3BP1 proximity ligation assay in compound-treated cells; type: cell-based, human; details: 10 μM; 16 h; 293T-HIV
Experimental: (§2) For each treatment, one-half of a Grace Biolabs Culture Well silicone chamber (Millipore-Sigma; GBL103380) was attached to a cover glass (Carl Zeiss, Oberkochen, Germany; catalog no. 474030-9000-000) to create four chambers on the cover glass. Each chambered cover glass was placed into a well of a 6-well plate, and the chambers were coated with poly-L-lysine and allowed to dry overnight. The next day, ∼4 × 10^3 293T/17 or 293T-HIV cells were seeded into each chamber, followed by incubation at 37°C for 5 to 6 h. After the cells adhered, they were treated with compound or DMSO. […] For quantification, 5 to 10 fields, each containing at least three IF-positive cells, were chosen at random and imaged using identical exposure times for each channel (100 to 150 ms for the PLA channel in red; 0.5 to 1 s for the IF channel in green, depending on the IF primary antibody; and 20 ms for the DAPI channel in blue). […] The ROIs identified in the IF channel were applied to a maximum intensity z projection of the PLA channel, and PLA spots within the ROI were counted using the find maxima function in Fiji, with noise threshold optimized to identify only PLA spots. Nuclei from each field were counted manually to determine the number of cells. […]

DDX6 and XRN1 = assay: DDX6-XRN1 proximity ligation assay in compound-treated cells; type: cell-based, human; details: 10 μM; 16 h; 293T-HIV
Experimental: as §2

G3BP1 = molecular target: T2, G3BP1 (Homo sapiens, UniProt Q13283); assay: Biotin-G3BP1 proximity ligation assay; type: cell-based; details: 293T-HIV; for PLA spots/cell (biotin-G3BP1 PLA): 10 μM, 16 h
T2 construct: endogenous in cells; host or cells: 293T-HIV cells
Experimental: as §2, with “DMSO. At 16 h posttreatment, the cells were fixed for 15 min in 4% paraformaldehyde in PBS (pH 7.4), permeabilized in 0.5% (wt/vol) saponin in PBS (pH 7.4) for 10 min, and blocked in Duolink blocking solution (Millipore-Sigma) at 37°C for 30 min.” for “DMSO.”

DDX6 = molecular target: T3, DDX6 (Homo sapiens, UniProt P26196); assay: Biotin-DDX6 proximity ligation assay; type: cell-based; details: for biotin-DDX6 PLA spots/cell: 16 h
T3 construct: endogenous in cells; host or cells: 293T/17 and 293T-HIV cells
T3 sequence (P26196 1-483): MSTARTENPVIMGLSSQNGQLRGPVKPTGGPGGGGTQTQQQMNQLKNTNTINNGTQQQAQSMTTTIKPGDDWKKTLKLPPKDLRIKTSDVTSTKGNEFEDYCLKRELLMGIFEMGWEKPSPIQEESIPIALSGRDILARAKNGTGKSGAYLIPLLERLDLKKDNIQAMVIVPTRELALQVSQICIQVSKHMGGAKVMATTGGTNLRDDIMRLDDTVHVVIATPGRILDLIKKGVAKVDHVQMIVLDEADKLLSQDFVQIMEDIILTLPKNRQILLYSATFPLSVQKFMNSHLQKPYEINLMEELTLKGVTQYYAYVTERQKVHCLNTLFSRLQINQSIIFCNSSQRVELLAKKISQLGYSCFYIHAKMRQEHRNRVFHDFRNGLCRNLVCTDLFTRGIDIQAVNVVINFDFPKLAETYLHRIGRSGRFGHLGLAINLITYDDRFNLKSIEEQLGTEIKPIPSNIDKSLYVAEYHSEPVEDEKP
Experimental: as §1

XRN1 = molecular target: T4, XRN1 (Homo sapiens, UniProt Q8IZH2); assay: Biotin-XRN1 proximity ligation assay; type: cell-based; details: 293T-HIV; for PLA spots/cell (biotin-XRN1 PLA): 10 μM, 16 h
T4 construct: endogenous in cells; host or cells: 293T-HIV cells
Experimental: as §2, with “DMSO. At 16 h posttreatment, the cells were fixed for 15 min in 4% paraformaldehyde in PBS (pH 7.4), permeabilized in 0.5% (wt/vol) saponin in PBS (pH 7.4) for 10 min, and blocked in Duolink blocking solution (Millipore-Sigma) at 37°C for 30 min.” for “DMSO.”

HIV-1 Gag = assay: Biotin-Gag proximity ligation assay; type: cell-based; details: for biotin-Gag PLA spots/cell: 16 h
Experimental: as §1

HIV-1 NL4-3 = type: cell-based; details: MT-2 cells, 37 weeks of selection
[1] = Human immunodeficiency virus 1, NL43, MT2

T2 sequence (Q13283 whole entry): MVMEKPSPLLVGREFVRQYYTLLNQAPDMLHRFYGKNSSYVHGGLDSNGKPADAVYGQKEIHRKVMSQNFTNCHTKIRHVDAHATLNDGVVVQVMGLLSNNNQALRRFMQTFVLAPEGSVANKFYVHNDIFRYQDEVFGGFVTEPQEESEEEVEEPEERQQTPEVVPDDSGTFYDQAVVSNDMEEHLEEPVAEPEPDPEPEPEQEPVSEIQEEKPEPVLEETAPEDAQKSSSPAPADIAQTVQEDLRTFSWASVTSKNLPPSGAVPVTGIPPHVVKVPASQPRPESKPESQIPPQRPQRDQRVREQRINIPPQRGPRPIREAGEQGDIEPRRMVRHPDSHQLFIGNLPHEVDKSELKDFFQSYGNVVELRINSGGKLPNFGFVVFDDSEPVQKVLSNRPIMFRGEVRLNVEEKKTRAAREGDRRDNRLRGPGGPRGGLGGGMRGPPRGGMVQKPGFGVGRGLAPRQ
T4 sequence (Q8IZH2 whole entry): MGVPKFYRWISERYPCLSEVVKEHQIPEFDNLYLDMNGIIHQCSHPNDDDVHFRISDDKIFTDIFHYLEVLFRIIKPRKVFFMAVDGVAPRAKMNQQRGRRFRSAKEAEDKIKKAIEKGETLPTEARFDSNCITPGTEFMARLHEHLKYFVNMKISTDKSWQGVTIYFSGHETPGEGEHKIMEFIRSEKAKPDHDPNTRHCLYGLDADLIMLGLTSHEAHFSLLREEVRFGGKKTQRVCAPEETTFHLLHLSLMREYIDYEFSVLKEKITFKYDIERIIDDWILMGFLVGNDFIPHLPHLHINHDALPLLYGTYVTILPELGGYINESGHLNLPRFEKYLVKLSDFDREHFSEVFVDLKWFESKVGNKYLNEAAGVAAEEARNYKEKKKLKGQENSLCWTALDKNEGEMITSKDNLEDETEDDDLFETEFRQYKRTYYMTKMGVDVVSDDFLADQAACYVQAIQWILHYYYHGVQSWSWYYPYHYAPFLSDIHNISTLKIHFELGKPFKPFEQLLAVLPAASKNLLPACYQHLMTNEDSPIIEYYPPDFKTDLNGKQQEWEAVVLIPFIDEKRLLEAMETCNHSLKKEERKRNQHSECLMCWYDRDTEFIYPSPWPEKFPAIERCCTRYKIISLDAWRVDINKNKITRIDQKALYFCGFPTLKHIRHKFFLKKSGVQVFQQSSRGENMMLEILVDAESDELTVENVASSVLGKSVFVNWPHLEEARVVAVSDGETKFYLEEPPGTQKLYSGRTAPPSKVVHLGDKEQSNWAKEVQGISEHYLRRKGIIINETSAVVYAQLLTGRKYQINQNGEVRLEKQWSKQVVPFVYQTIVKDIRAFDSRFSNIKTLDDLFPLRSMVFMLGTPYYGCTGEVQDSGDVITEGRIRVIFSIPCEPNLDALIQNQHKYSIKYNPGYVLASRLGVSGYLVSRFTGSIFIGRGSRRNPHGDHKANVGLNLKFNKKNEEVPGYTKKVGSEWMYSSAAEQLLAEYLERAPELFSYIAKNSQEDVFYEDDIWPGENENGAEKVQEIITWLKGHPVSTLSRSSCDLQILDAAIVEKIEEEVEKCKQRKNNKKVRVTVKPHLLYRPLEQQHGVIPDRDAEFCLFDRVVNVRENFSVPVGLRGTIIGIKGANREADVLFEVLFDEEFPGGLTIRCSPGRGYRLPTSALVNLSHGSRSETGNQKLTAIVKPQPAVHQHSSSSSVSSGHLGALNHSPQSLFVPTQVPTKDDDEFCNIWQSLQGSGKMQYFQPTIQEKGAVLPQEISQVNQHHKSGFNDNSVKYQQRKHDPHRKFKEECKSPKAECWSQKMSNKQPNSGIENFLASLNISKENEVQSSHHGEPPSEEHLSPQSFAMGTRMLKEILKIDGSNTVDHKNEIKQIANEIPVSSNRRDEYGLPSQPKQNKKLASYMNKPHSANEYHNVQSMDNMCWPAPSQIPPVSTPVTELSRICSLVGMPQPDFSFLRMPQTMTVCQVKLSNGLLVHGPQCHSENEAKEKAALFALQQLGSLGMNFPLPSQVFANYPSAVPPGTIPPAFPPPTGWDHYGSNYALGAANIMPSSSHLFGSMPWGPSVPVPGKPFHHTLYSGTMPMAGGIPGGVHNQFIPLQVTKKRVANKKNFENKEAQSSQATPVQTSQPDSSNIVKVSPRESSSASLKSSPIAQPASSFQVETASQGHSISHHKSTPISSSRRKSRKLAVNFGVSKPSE
Experimental for MT-2 cells: as §4, §3

COc1ccc(/C=C/C2NCCc3cc(OCc4ccccc4)c(OC)cc32)cc1 (centres unmarked) [PAV-493]
SI (CC50/EC50) (HIV-1 NL4-3 RLuc; MT-2 cells): 37 | CC50 (in vitro; CC50 (μM)): 21 µM

COc1cc2c(cc1OCc1ccccc1)CCNC2/C=C/c1ccccc1C (centres unmarked) [PAV-245]
EC50 (HIV-1 NL4-3 RLuc; [1]): 0.755 µM | SI (CC50/EC50) (HIV-1 NL4-3 RLuc; MT-2 cells): 4.8 | CC50 (in vitro; CC50 (μM)): 3.6 µM

COc1cc(C)c(C=CC2NCCc3cc(OCc4ccccc4)c(OC)cc32)cc1OCCCCNC(=O)C(CC1(C)N=N1)NC(=O)CCOCCOCCNC(=O)CCCCC1SCC2NC(=O)NC21 (centres unmarked) [PAV-818]
biotin-ABCE1 PLA spots/cell (ABCE1; 5 μM, 293T-HIV (HIV +)): 42.0 | biotin-ABCE1 PLA spots/cell (ABCE1; 10 μM, 293T-HIV (HIV +)): 64.2 | biotin-ABCE1 PLA spots/cell (ABCE1; 10 μM, uninfected 293T (HIV −)): 72.9 | biotin-ABCE1 PLA spots/cell (ABCE1; 20 μM, 293T-HIV (HIV +)): 104.7 | fold more biotin-ABCE1 PLA spots than with PAV-543 (ABCE1; both at 10 μM, 293T-HIV): 14.3 fold | EC50 (HIV-1 NL4-3 RLuc; Human immunodeficiency virus 1, NL43, T-cell, 96 h, read-out: EC50 for inhibition of HIV-1 replication): 0.951 µM | selectivity index (CC50/EC50) (HIV-1 NL4-3 RLuc; MT-2 cells, from the shown dose-response curve): ~32 | PLA spots/cell (TIAR-G3BP1 PLA) (TIAR and G3BP1): 35.0 | PLA spots/cell (DDX6-XRN1 PLA) (DDX6 and XRN1): 35.2 | PLA spots/cell (biotin-G3BP1 PLA) (G3BP1): 6.3 | colocalization with the stress granule protein G3BP1 (G3BP1; PLA): does not colocalize | biotin-DDX6 PLA spots/cell (DDX6; 5 μM, 293T-HIV (HIV +)): 47.4 | biotin-DDX6 PLA spots/cell (DDX6; 10 μM, 293T-HIV (HIV +)): 65.1 | biotin-DDX6 PLA spots/cell (DDX6; 10 μM, uninfected 293T (HIV −)): 58.0 | biotin-DDX6 PLA spots/cell (DDX6; 20 μM, 293T-HIV (HIV +)): 82.9 | fold more biotin-DDX6 PLA spots than in PAV-543-treated or DMSO-treated cells (DDX6; 293T-HIV): ~5.1 fold | PLA spots/cell (biotin-XRN1 PLA) (XRN1): 5.3 | colocalization with the P-body marker XRN1 (XRN1; PLA): does not colocalize | CC50 (in vitro; CC50): ~30 µM | biotin-Gag PLA spots/cell (HIV-1 Gag; 5 μM, 293T-HIV (HIV +)): 32.6 | biotin-Gag PLA spots/cell (HIV-1 Gag; 10 μM, 293T-HIV (HIV +)): 51.5 | biotin-Gag PLA spots/cell (HIV-1 Gag; 10 μM, uninfected 293T (HIV −)): 7.1 | biotin-Gag PLA spots/cell (HIV-1 Gag; 20 μM, 293T-HIV (HIV +)): 111.8 | fold more biotin-Gag PLA spots than with PAV-543 (HIV-1 Gag; both at 10 μM, 293T-HIV): 5.5 fold

COc1ccc(/C=C/C2NCCc3cc(OCc4ccccc4)c(OC)cc32)cc1OCc1ccccc1 (centres unmarked) [PAV-220]
EC50 (HIV-1 NL4-3 RLuc; [1]): 0.163 µM | SI (CC50/EC50) (HIV-1 NL4-3 RLuc; MT-2 cells): 23 | CC50 (in vitro; CC50 (μM)): 3.8 µM

Cc1c(O)cccc1C(=O)N[C@@H](CSc1ccccc1)[C@H](O)CN1C[C@H]2CCCC[C@H]2C[C@H]1C(=O)NC(C)(C)C [nelfinavir, reference compound]
resistance level reached: compound concentration allowing virus replication, fold higher than the EC50 (HIV-1 NL4-3): 16 fold

COc1cc2c(cc1OCc1ccccc1)CCNC2/C=C/c1ccccc1 (centres unmarked) [PAV-492]
EC50 (HIV-1 NL4-3 RLuc; [1]): 1.54 µM | SI (CC50/EC50) (HIV-1 NL4-3 RLuc; MT-2 cells): > 6 | CC50 (in vitro; CC50 (μM)): > 10 µM

COc1ccc(/C=C/C2NCCc3cc(OCc4ccccc4)c(OC)cc32)c(C)c1 (centres unmarked) [PAV-218]
SI (CC50/EC50) (HIV-1 NL4-3 RLuc; MT-2 cells): 66 | CC50 (μM) (MT-2 cells): 9.7 ×/÷ 1.2 μM

N#CCC(NC(=O)CCOCCOCCNC(=O)CCCC[C@@H]1SCC2NC(=O)NC21)C(=O)NCCCCOc1ccccc1 (some centres unmarked) [PAV-543, reference compound]
biotin-ABCE1 PLA spots/cell (ABCE1; 10 μM, 293T-HIV (HIV +)): 4.5 | EC50 (HIV-1 NL4-3 RLuc; Human immunodeficiency virus 1, NL43, T-cell, read-out: EC50MT-2): > 100 µM | PLA spots/cell (TIAR-G3BP1 PLA) (TIAR and G3BP1): 51.5 | PLA spots/cell (DDX6-XRN1 PLA) (DDX6 and XRN1): 77.4 | PLA spots/cell (biotin-G3BP1 PLA) (G3BP1): 1.6 | biotin-DDX6 PLA spots/cell (DDX6; 10 μM, 293T-HIV (HIV +)): 12.6 | PLA spots/cell (biotin-XRN1 PLA) (XRN1): 3.8 | CC50 (in vitro; CC50): > 100 µM | biotin-Gag PLA spots/cell (HIV-1 Gag; 10 μM, 293T-HIV (HIV +)): 9.3

COc1cc2c(cc1OCc1ccccc1)CCNC2/C=C/c1cccc(OCc2ccccc2)c1 (centres unmarked) [PAV-494]
EC50 (HIV-1 NL4-3 RLuc; [1]): 0.244 µM | SI (CC50/EC50) (HIV-1 NL4-3 RLuc; MT-2 cells): 17 | CC50 (in vitro; CC50 (μM)): 4.1 µM
